Key:
[1] = tested on: C5a receptor from PMN membranes; experiment: Release of binding sites from the membrane: total binding activity of detergent extracts at saturation compared with intact membrane; parameters: species or system human
Protocol: In additional experiments (results not shown) the ability of digitonin and β-dodecyl maltoside to release binding sites from the membrane was determined by comparing the total binding activity of the extracts, at saturation, with that of an equivalent amount of intact membrane. In the two experiments in which a direct comparison was made the efficiencies of the detergents appeared to be similar, both solubilized 30-35% of the receptors initially present in the membrane. However, over the course of the work we did observe variability from experiment to experiment and it is our impression that, on average, digitonin was more efficient than β-dodecyl maltoside (for an example, see Table I).

[2] = tested on: solubilized C5a receptor; experiment: Inhibition of C5a binding to solubilized or purified receptor by nucleotides; parameters: species or system human
Protocol: -All assays, except where noted, were performed at 4°C, with freshly thawed membranes or freshly prepared soluble receptor. To assay intact membranes, assay buffer (50 mM HEPES, pH 7.2, containing 1 mM CaCl₂, 5 mM MgCl₂, 0.1 mM PMSF, 0.1% bacitracin, and 0.5% bovine serum albumin), ¹²⁵I-C5a (typically 0.1 ng), and membrane (typically 0.5 µg) were added sequentially to a final volume of 200 µl. After incubation for 60-90 minutes 2 ml of assay buffer was added, the solution mixed, and the sample filtered through either a Whatman® GF/C filter treated with 0.33% polyethyleneimine or an untreated Millipore®GVWP filter. […] The filters were then counted in a Packard 460 γ-counter. Nonspecific backgrounds were determined by including 20 ng or more of unlabled C5a in the incubation mixture. To assay soluble receptor, assay buffer, solubilized membrane (typically 5 µl) and ¹²⁵I-C5a were mixed to a final volume of 200 µl and incubated for 15-30 minutes, at which time 500 µl of 0.1% bovine γ-globulin and 500 µl of 30% polyethylene glycol were added sequentially with vigorous mixing. After an additional 5 minutes, the sample was filtered and washed with 2 ml of a 9% PEG solution. (Precipitation is essentially complete in less than one minute and the precipitated receptor-­ligand complex is stable for more than 30 minutes.)
As shown in Figure 5 membranes were solubilized in digitonin and assayed for binding activity in the presence of increasing amounts of GTPγS.

CCCCCCCCCCCCO[C@@H]1O[C@H](CO)[C@@H](O[C@H]2O[C@H](CO)[C@@H](O)[C@H](O)[C@H]2O)[C@H](O)[C@H]1O [β-Dodecyl maltoside]
receptors initially present in the membrane solubilized [1]: 30-35%

Nc1nc2c(ncn2[C@@H]2O[C@H](COP(=O)(O)OP(=O)(O)OP(O)(O)=S)[C@@H](O)[C@H]2O)c(=O)[nH]1 [GTPγS]
maximum inhibition of C5a binding ([2]; digitonin solubilized membranes): 85% | IC50 ([2]; inhibition of C5a binding, digitonin solubilized membranes, read-out: IC₅₀): 0.01 µM | inhibition of binding of C5a to the purified receptor ([2]; purified receptor, 3 different preparations): 27-50%

Source: patent EP0377489A2, “Purified C5a receptor from human polymorphonuclear leukocytes” (MERCK & CO. INC., priority 1989, dated 1990)
